Measured values as given in ChEMBL document CHEMBL1159216, “Imperanene, a novel phenolic compound with platelet aggregation inhibitory activity from Imperata cylindrica” (J Nat Prod, 1995).
The source made the active and inactive calls. The rule behind the calls is not given here.

Tested on: Platelet
Assay: Antiplatelet activity in Japanese white rabbit platelet assessed as inhibition of thrombin-induced platelet aggregation at 600 uM preincubated 5 mins before thrombin challenge
Type: functional, cell-based
Conditions: Oryctolagus cuniculus

In the case of `COc1cc(/C=C/[C@@H](CO)Cc2ccc(O)c(OC)c2)ccc1O`, the Activity was “Active”.
